Experimental data reported in US6733782B1, “Core tablet for controlled release of gliclazide after oral administration” (Les Laboratories Servier, priority 1999, dated 2004).

Experiment: solubility of the active ingredient according to pH (FIG. 1)
Type: physicochemical
Details: at acid pHs; increases as pH rises (FIG. 1)
Excerpt: The main aim of the invention was to obtain an oral form in which the rate of release of the active ingredient is controlled and reproducible. In fact, in the current form the dissolution of the active ingredient varies greatly according to pH. This characteristic, associated with gliclazide itself, poses absorption problems for the active ingredient. The solubility is very weak at acid pHs and increases as pH rises.
FIG. 1 represents the phenomenon of the solubility of the active ingredient varying according to pH.

solubility of the active ingredient: very weak
SMILES: Cc1ccc(S(=O)(=O)NC(=O)NN2CC3CCCC3C2)cc1 (stereo not shown) [gliclazide, Gliclazide]
